For data set [1] the following is noted: cited from earlier work.
Data set [2] has as its system most of the cell types tested.
Protocol: Within 15 min after washing the dye away from the exterior of the cells, the intracellular pool of the dye is pumped out, either by an organic anion pump mechanism or by diffusion.
The cell staining assay utilized various cell lines and included P388D1 (mouse macrophage), HEPG2 (human liver), CV1 (monkey epithelial), ccd50sk (untransformed human fibroblast), Rat2 (rat fibroblast), MDCK (kidney cells), L6 (rat myoblast), L cells (mouse fibroblast), HeLa (human adenocarcinoma), skov3 (human ovarian adenocarcinoma), and skbr3 (human breast adenocarcinoma) cells. Other cell lines that were used included Jurkat (human T cell), H9 (human T cell), NIH3T3 (mouse fibroblast), HL60 (human T cell), and H4 (rat liver). All cell lines are commercially available from the American Type Culture Collection, Rockville, Md.
Cells were grown on 25 mm-#1 coverslips in media containing 25 mM HEPES, pH 7.3, (which helps maintain pH on the microscope) without phenol red (which can lead to high background fluorescence when working with living cells). Coverslips were used so that the high numerical aperture oil-immersion lenses on the microscope could be used. The coverslips were mounted onto "viewing chambers": 6-well petri dishes which have 22 mm holes drilled into the bottom. […]
Data set [3] is described as follows: pH dependence of fluorescence of fluorescein. It is filed as physicochemical. An excerpt:
A preferred fluor is fluorescein.

Where [4] appears, read: known values of standard compounds used for the standard curve (Veith et al.).

We go through five molecules from US5763208A, “Oligonucleotides and their analogs capable of passive cell membrane permeation” (Gilead Sciences, Inc., priority 1996, dated 1998).

Like-named read-outs stand apart in the source and are kept apart here. Some results are limits rather than exact numbers.

As for `Nc1ccccc1` [aniline], in data set [1] (setting [4]), the “Log Poct” value was 0.9.

Regarding `Nc1cccc(O)c1` [3-aminophenol], the “Log Poct” value in data set [1] (setting [4]) was 0.17.

`O=C1OC2(c3ccc(O)cc3Oc3cc(O)ccc32)c2ccccc21` [fluorescein]: the “time in which the intracellular pool of the dye is pumped out” value in data set [2] is listed as at most 15 min. In addition, the “cell permeation of dye” value in data set [2] (not told) is listed as “permeant to most of the cell types tested”. The net charge entry in data set [3] (pH 5.0) is reported as “net neutral charge”; in data set [3] (pH 7.5), “net negative charge”. Besides, the “fluorescence at pH 5.0 relative to pH 7.5” value in data set [3] (pH 5.0 vs pH 7.5) is “greater than an order of magnitude less fluorescent”. Consider `Nc1ccccc1O` [2-aminophenol], for which the “Log Poct” value in data set [1] (octanol/water) is 0.62.

As to `Nc1ccccc1[N+](=O)[O-]` [o-nitroaniline], the “Log Poct” value in data set [1] (setting [4]) was 1.44.
